The source of these data is BindingDB's records for doi:10.1021/ml200284s (2012).

In general, IC50 refers to the point on the concentration scale where inhibition reaches its midpoint.

The structures appear in SMILES notation.

The experiment in a line: Inhibition of dynamin1-mediated endocytosis in human U2OS cells assessed as inhibition of Texas red-Tf uptake incubated for 30 mins prior to Texas red-Tf addition measured after 8 mins by receptor-mediated endocytosis assay.

For `O=C1N=C(S)SC1=Cc1cc(Cl)cc(Cl)c1`, the IC50 came out at 18.1 µM. Under `C=CCN1C(=O)/C(=C/c2ccc(OCCCN(C)C)cc2)SC1=S` stands 5.9 µM. With `O=C(O)CN1C(=O)/C(=C/c2csc3ccc(Cl)cc23)SC1=S`, the IC50 was greater than 100 µM.
